BindingDB's records for doi:10.1021/acs.jmedchem.7b01231 (Dongguk University, 2017)
pIC50: −log10 of the molar value.

Target: Hypoxia-inducible factor 1-alpha (Homo sapiens, UniProt Q16665)
Experiment: ChEBML_1681384
Procedure: Inhibition of HIF-1alpha in human HCT116 cells incubated for 12 hrs under hypoxic conditions by HRE dual-luciferase reporter gene assay

Chain of Hypoxia-inducible factor 1-alpha (Q16665 whole entry): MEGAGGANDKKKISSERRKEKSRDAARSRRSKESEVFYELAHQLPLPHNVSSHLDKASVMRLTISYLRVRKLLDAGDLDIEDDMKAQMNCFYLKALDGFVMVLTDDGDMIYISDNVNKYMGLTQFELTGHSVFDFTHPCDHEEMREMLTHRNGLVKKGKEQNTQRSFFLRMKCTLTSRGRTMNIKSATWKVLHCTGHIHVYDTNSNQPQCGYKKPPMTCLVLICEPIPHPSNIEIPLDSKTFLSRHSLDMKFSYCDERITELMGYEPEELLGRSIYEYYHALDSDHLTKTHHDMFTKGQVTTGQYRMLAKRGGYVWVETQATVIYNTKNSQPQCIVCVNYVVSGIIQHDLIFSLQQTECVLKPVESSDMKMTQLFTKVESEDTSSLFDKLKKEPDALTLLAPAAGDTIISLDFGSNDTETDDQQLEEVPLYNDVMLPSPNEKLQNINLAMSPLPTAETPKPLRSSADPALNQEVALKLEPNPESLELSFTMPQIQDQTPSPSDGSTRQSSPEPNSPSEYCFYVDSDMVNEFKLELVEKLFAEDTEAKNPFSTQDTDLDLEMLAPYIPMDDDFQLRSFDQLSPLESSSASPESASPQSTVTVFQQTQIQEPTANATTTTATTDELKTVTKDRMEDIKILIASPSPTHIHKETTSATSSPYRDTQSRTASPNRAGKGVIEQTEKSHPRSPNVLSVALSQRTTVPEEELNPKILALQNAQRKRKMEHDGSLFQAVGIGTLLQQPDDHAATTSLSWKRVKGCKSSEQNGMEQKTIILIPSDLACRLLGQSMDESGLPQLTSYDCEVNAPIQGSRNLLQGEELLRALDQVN

pIC50	Compound
< 4.40	COC(=O)c1ccc(OC)c(NC(=O)COc2ccc(C(C)(C)CC(C)(C)C)cc2)c1
< 4.40	CCCCCc1ccc(OCC(=O)Nc2cccc(C(=O)OC)c2)cc1
5.85	COC(=O)c1cccc(NC(=O)CCCOc2ccc(C(C)(C)CC(C)(C)C)cc2)c1
